Measurements from patent publication US20090143285A1, “TARGET PROTEIN AND TARGET GENE FOR DRUG DISCOVERY AND SCREENING METHOD” (REVERSE PROTEOMICS RESEARCH INSTITUTE CO., LTD., priority 2005, published 2009).
“Also recorded” adds a separate entry of the source.

The compounds below were run on FLJXXXXX-derived proteins (assay: SEC/MS spin column interaction analysis of FLJXXXXX-derived proteins and various compounds (Tables 30-1 to 30-4)). Conditions: not given.
Type: binding, human

Compound	FLJ No of the derived protein with which the compound was judged to exhibit a concentration-dependent interaction
cyclosporin A	FLJ23466; also recorded: FLJ11211; also recorded: FLJ37909
CCCSc1ccc2nc(NC(=O)OC)[nH]c2c1 [albendazole]	FLJ35353

Same assay, conditions: SEC spin column filtrate, spectral intensity increased with doses of compound and protein

Compound	FLJ No of the derived protein with which the compound was judged to exhibit a concentration-dependent interaction
CC1CCCC(C)N1 (stereo not drawn) [nanofin (cis), nanofin]	FLJ42665
Fc1ccc(C(c2ccc(F)cc2)N2CCN(C/C=C/c3ccccc3)CC2)cc1 [flunarizine]	FLJ37909
Cl.Cl.OCCN1CCN(CCC=C2c3ccccc3Sc3ccc(C(F)(F)F)cc32)CC1 (mixture of isomers) [flupentixol]	FLJ37909
c1ccc2c(c1)CCCC2C1=NCCN1 (centres unmarked) [tetrazoline]	FLJ36526
CCn1cc(C(=O)O)c(=O)c2cc3c(cc21)OCO3 [oxolinic acid]	FLJ37909
CCN1C(=O)NC(c2ccccc2)C1=O (centres unmarked) [ethotoin]	FLJ38531
CC(N/C(=N\C#N)Nc1ccncc1)C(C)(C)C (centres unmarked) [pinacidil]	FLJ35353
Cc1cc(C(C)(C)CC(C)(C)C)ccc1OCCOCC[N+](C)(C)Cc1ccccc1.[Cl-] [methylbenzethonium chloride]	FLJ20571; also recorded: FLJ35353
C[C@@H]1CC[C@@]2(NC1)O[C@H]1C[C@H]3[C@@H]4CC=C5C[C@@H](O)CC[C@]5(C)[C@H]4CC[C@]3(C)[C@H]1[C@@H]2C [solasodine]	FLJ35353
CN(C)[C@@H]1C(O)=C(C(N)=O)C(=O)[C@@]2(O)C(O)=C3C(=O)c4c(O)ccc(Cl)c4[C@@H](O)[C@H]3C[C@@H]12 [demeclocycline]	FLJ39553
CC(=O)CCCCn1c(=O)c2c(ncn2C)n(C)c1=O [pentoxifylline]	FLJ35353
COc1cc(NS(=O)(=O)c2ccc(N)cc2)nc(OC)n1 [sulfadimethoxine]	FLJ39553
CC(=O)[C@@]1(O)CC[C@H]2[C@@H]3CCC4=CC(=O)CC[C@]4(C)[C@H]3CC[C@@]21C [hydroxyprogesterone]	FLJ37909
CN1CCN(CC/C=C2/c3ccccc3Sc3ccc(S(=O)(=O)N(C)C)cc32)CC1 [thiothixene (cis), thiothixene]	FLJ37909
Cc1c2ccncc2c(C)c2c1[nH]c1ccccc12 [ellipticine]	FLJ35353
O=C1CN=C(c2ccccc2)c2cc(Cl)ccc2N1 [nordiazepam]	FLJ35353
CC(C)C[C@H]1C(=O)N2CCC[C@H]2[C@]2(O)O[C@](NC(=O)[C@@H]3C=C4c5cccc6[nH]cc(c56)C[C@H]4N(C)C3)(C(C)C)C(=O)N12 [α-ergocryptine]	FLJ35353
CN(C)CCCN1c2ccccc2Sc2ccc(Cl)cc21 [chlorpromazine]	FLJ35353
Cc1cnc(C(=O)NCCc2ccc(S(=O)(=O)NC(=O)NC3CCCCC3)cc2)cn1 [glipizide]	FLJ35353
CC(=O)O[C@H]1C(=O)[C@@]2(C)[C@H]([C@H](OC(=O)c3ccccc3)[C@]3(O)C[C@H](OC(=O)[C@H](O)[C@@H](NC(=O)c4ccccc4)c4ccccc4)C(C)=C1C3(C)C)[C@]1(OC(C)=O)CO[C@@H]1C[C@@H]2O [paclitaxel]	FLJ39553
CCCCC[C@](C)(O)/C=C/[C@@H]1[C@@H](C/C=C\CCCC(=O)O)[C@@H](O)C[C@H]1O [carboprost]	FLJ39553
c1ccc2c(c1)CCCc1cc(NCCN3CCOCC3)nnc1-2 [SR-95639A]	FLJ36526
O=c1[nH]c2ccccc2n1CCCN1CCC(n2c(=O)[nH]c3cc(Cl)ccc32)CC1 [domperidone]	FLJ20571
celestine blue	FLJ39553
COc1cc2nc(N3CCN(C(=O)C4COc5ccccc5O4)CC3)nc(N)c2cc1OC (centres unmarked) [doxazosin]	FLJ37909
Cc1cc2c(cc1S(N)(=O)=O)S(=O)(=O)CCC2 [meticrane]	FLJ39553
CC(C)/N=c1\cc2n(-c3ccc(Cl)cc3)c3ccccc3nc-2cc1Nc1ccc(Cl)cc1 [clofazimine]	FLJ35353

Compound	FLJ No of the derived protein with which the compound was judged to exhibit a concentration-dependent interaction
[H]/N=C(\N/C(=N/[H])NCCCCCCNC(=N)NC(=N)Nc1ccc(Cl)cc1)Nc1ccc(Cl)cc1 [chlorhexidine]	FLJ37909
O=C1CNC(=O)N1 [hydantoin]	FLJ35914
CC(=O)c1ccc2c(c1)N(CCCN(C)C)c1ccccc1S2 [acetopromazine]	FLJ36526
NCC[C@H](O)C(=O)N[C@@H]1C[C@H](N)[C@@H](O[C@H]2O[C@H](CN)[C@@H](O)[C@H](O)[C@H]2O)[C@H](O)[C@H]1O[C@H]1O[C@H](CO)[C@@H](O)[C@H](N)[C@H]1O [amikacin]	FLJ37909
NCc1ccc(S(N)(=O)=O)cc1 [mafenide]	FLJ21841
CCC(C)C1O[C@]2(C=C[C@@H]1C)C[C@@H]1CC(C/C=C(\C)[C@@H](OC3C[C@H](OC)[C@@H](OC4C[C@H](OC)[C@@H](O)[C@H](C)O4)[C@H](C)O3)[C@@H](C)/C=C/C=C3\COC4[C@H](O)C(C)=CC(C(=O)O1)[C@]34O)O2 (some centres unmarked) [avermectin B1A]	FLJ39553
CCN(CC)CCOc1ccc(C(=C(Cl)c2ccccc2)c2ccccc2)cc1 [clomiphene]	FLJ37909
CN1C[C@H](C(=O)N[C@]2(C)O[C@@]3(O)[C@@H]4CCCN4C(=O)[C@H](Cc4ccccc4)N3C2=O)C[C@@H]2c3cccc4[nH]cc(c34)C[C@H]21 [dihydroergotamine]	FLJ37909
C[C@@H]1C[C@H]2[C@@H]3C[C@H](F)C4=CC(=O)C=C[C@]4(C)[C@H]3[C@@H](O)C[C@]2(C)[C@@]1(O)C(=O)CO [paramethasone]	FLJ39553
CCCCc1oc2ccccc2c1C(=O)c1cc(I)c(OCCN(CC)CC)c(I)c1 [amiodarone]	FLJ37909
COc1cc2c(cc1OC)-c1cc3ccc(OC)c(OC)c3c[n+]1CC2 [palmatine]	FLJ39553
COc1cccc(CCc2ccccc2OCC(CN(C)C)OC(=O)CCC(=O)O)c1 (centres unmarked) [sarpogrelate]	FLJ39553
CC(CN(C)C)CN1c2ccccc2Sc2ccccc21 (centres unmarked) [alimemazine]	FLJ37909
NCCCC[C@H](N[C@@H](CCc1ccccc1)C(=O)O)C(=O)N1CCC[C@H]1C(=O)O [lisinopril]	FLJ40760
CC(=O)[C@H]1CC[C@H]2[C@@H]3C=CC4=CC(=O)CC[C@@]4(C)[C@@H]3CC[C@]12C [dydrogesterone]	FLJ35353
CC/C(=C(\c1ccccc1)c1ccc(OCCN(C)C)cc1)c1ccccc1 [tamoxifen]	FLJ37909
C=C[C@H]1C[N@@]2CC[C@H]1C[C@@H]2[C@@H](O)c1ccnc2ccccc12 [cinchonine]	FLJ39553
CC#C[C@]1(O)CC[C@H]2[C@@H]3CCC4=CC(=O)CCC4=C3[C@@H](c3ccc(N(C)C)cc3)C[C@@]21C [mifepristone]	FLJ22317
COC(=O)Nc1nc2ccc(Sc3ccccc3)cc2[nH]1 [fenbendazole]	FLJ37909
Cc1c(N(C)CS(=O)(=O)[O-])c(=O)n(-c2ccccc2)n1C.[Na+] [dipyrone]	FLJ35353
COc1ccc2c3c([nH]c2c1)C(C)=NCC3 [harmaline]	FLJ39553
CCOC(=O)Oc1c(OC)cc(C(=O)O[C@@H]2C[C@@H]3CN4CCc5c([nH]c6cc(OC)ccc56)[C@H]4C[C@@H]3[C@H](C(=O)OC)[C@H]2OC)cc1OC [syrosingopine]	FLJ35353
CC1CCc2cc(F)cc3c(=O)c(C(=O)O)cn1c23 (centres unmarked) [flumequine]	FLJ38531
eburnamonine	FLJ11211
CNCCCC1c2ccccc2C=Cc2ccccc21 [protriptyline.]	FLJ20972
COC(=O)[C@H]1[C@H]2C[C@@H]3c4[nH]c5cc(OC)ccc5c4CCN3C[C@H]2C[C@@H](OC(=O)c2cc(OC)c(OC)c(OC)c2)[C@@H]1OC [reserpine]	FLJ37909

Same assay, conditions: SEC spin column filtrate, spectral intensity increased with doses of compound and protein; listed as Thiothixene (cis)

Compound	FLJ No of the derived protein with which the compound was judged to exhibit a concentration-dependent interaction
CN1CCN(CC/C=C2/c3ccccc3Sc3ccc(S(=O)(=O)N(C)C)cc32)CC1 [thiothixene (cis), thiothixene]	FLJ35353
